From US20260174682A1, “GAMMA-AMINOBUTYRIC ACID DERIVATIVE COMPRISING POLYCYCLIC STRUCTURE, METHOD FOR PREPARING SAME, AND USE THEREOF” (ZHONGSHAN INSTITUTE FOR DRUG DISCOVERY, SIMM, CAS., priority 2022, published 2026)
“And” between values parts separate entries of the source, which are not always exact repeats. Equal entries are not always repeated. Marks after values point to notes of the source that are not given here.

Assays:
motor functions of rats = test: Rotarod test of impact on motor functions of rats; settings: male SD rats; for impact on rotarod behaviors of the rats: gavage 10 mg/kg (calculated by free base); for impact on rotarod behaviors of the rats / impact on rotarod behaviors of the rats (impacted proportion): FIG. 7; for impact on rotarod behaviors of the rats (impacted proportion): gavage 30 mg/kg (calculated by free base)
Procedure: A negative vehicle control, a positive drug control group (pregabalin, (PGB), 10 mg/kg, 30 mg/kg) were set, and a test group (including (+)—I-3 p-toluenesulfonate at 10 mg/kg (calculated by free base), (+)—I-4 p-toluenesulfonate at 10 mg/kg (calculated by free base), (+)—I-3 p-toluenesulfonate at 30 mg/kg (calculated by free base) and (+)—I-4 p-toluenesulfonate at 30 mg/kg (calculated by free base)) were set. Male SD rats with the body weight of 200-250 g were selected, with 10 animals in each administration group. AYLS-31A fatigue rota-rod (Shanghai Xinruan Information Technology Co., Ltd.) was used as rotarod test equipment, and a rotation speed was set at a constant speed of 6 rpm. A screening test was carried out on the first day. Tail tips of the rats were pinched, placed on the rotarod, and released the same after the rats maintained balance on the rotarod and moved along with the rotarod. The falling number of the rats within the next 1 min was recorded and counted. The rats that fell for 3 times within 1 min were excluded, which were not used for subsequent drug evaluation. A drug evaluation test was carried out on the second day. The rats were fasted for 8 h before the test, then a rotarod test was carried out once to serve as a time point (BL) before administration, and then administration was performed by gavage. […] The falling number of the rats within 1 min was recorded and counted. The rats falling for 3 times within one min were regarded as having “motor function impairments” caused by drug toxicity. The “motor function impairment” degree (rotarod fall) of each administration group at a specific time point was calculated as a proportion of a number of the animals with “motor function impairments” in the group to a total number of the animals in the group.
The rotarod test is a classic test for measuring the damage of compounds to motor functions of animals.

male SD rats = test: Acute toxicity test on rats; settings: for Observation of clinical symptoms 0.5 h / Observation of clinical symptoms 1 h / Observation of clinical symptoms 2 h / Observation of clinical symptoms 4 h / Observation of clinical symptoms 6 h / Observation of clinical symptoms 24 h: per animal
Procedure: After adapting to the environment for one week, the SD rats were used in a preliminary acute toxicity test. The compounds were newly formulated on the day of the test. […] After being labeled and weighed, the animals were randomly grouped with 2-4 animals in each group. […] Clinical symptoms of each animal were observed and recorded at 0.5 hours, 1 hour, 2 hours, 4 hours, 6 hours and 24 hours after the administration, respectively. Clinical symptom codes were as follows: 0 no abnormality, 1 mild tremor, 2 unsteady gait, 3 prone position, 4 startle reflex, 5 difficult breathing, 6 righting reflex disappeared, 7 eyelid closure, 8 shortness of breath, and x animal death.

[1] = Pharmacokinetic test on rats; format: in vivo, rat; settings: male SD rats; for t1/2: data based on free base
Procedure: Male SD rats were fasted for 12 h before the test and then allowed to drink water freely. The compound (+)—I-3 p-toluenesulfonate or (+)—I-4 p-toluenesulfonate of the present application was dissolved with a 10% distilled water solution of 1,2-propanediol and then administered orally or intravenously to the male SD rats, with 3 rats in each group. At 15 min, 30 min, 1 hour, 2 hours, 3 hours, 4 hours, 6 hours, 8 hours and 24 hours after the oral administration or at 5 min, 15 min, 30 min, 1 hour, 2 hours, 3 hours, 4 hours, 6 hours, 8 hours and 24 hours after the intravenous administration, 0.2 mL of blood was taken from retroocular venous plexuses, placed in an EDTA-K2 test tube, centrifuged at 11,000 rpm for 5 min to separate plasma, and frozen in a refrigerator at −20° C. The concentration of a drug prototype was determined by HPLC-ESI-MS according to a verified method, and pharmacokinetic parameters were calculated by WinNonLin.

[2] = tested on: mouse model with subcutaneous injection of pentylenetetrazole (sc-PTZ); test: Antiepileptic effect in mouse model with subcutaneous injection of pentylenetetrazole (sc-PTZ); format: in vivo; settings: for Clonic seizure incidence / Convulsive seizure incidence / Generalized clonic seizure incidence / Mortality / Tonic seizure incidence: sc-PTZ 100 mg/kg, ICR mice, intraperitoneal 30 mg/kg (own compounds calculated by free base), 1 h observation; for latent periods of generalized clonic seizures, tonic seizures and death: 30 mg/kg (calculated by free base), FIG. 6
Procedure: A negative vehicle control group, a positive drug control group (pregabalin and gabapentin) and a test group of the compounds of the present application were set. Male ICR mice with a body weight of 22±2 g were selected. […] After fasted for 12 h, the mice were administered the compounds of the present application or the control drugs, and then subcutaneously injected with pentylenetetrazole (PTZ) to induce epilepsy seizure behaviors after a certain time interval (2 h for pregabalin, 1 h for gabapentin, and 3 h for the compounds of the present application). In an induction model, pentylenetetrazole (PTZ) was dissolved in normal saline and administered to the mice through the way of subcutaneous injection (10 mL/kg, administration dose 100 mg/kg). After the injection of PTZ, behavioral observations on the mice were conducted for 1 h, and the latent periods and numbers of the mice with convulsive seizures, clonic seizures, tonic seizures and death after the injection of PTZ were recorded.
Statistical method: Protection rates and mortality of different administration groups were separately compared with those of the vehicle control group to carry out a Fisher's exact test. The seizure time and the latent periods were analyzed by one-way ANOVA.

postherpetic neuralgia = settings: 150-600 mg per day; cited from earlier work
[3] = oral gavage 163.8 mg/kg (calculated by free base)
[4] = oral gavage 300 mg/kg (calculated by free base)
[5] = gavage vs intravenous injection
[6] = intravenous injection, 1.10 / 1.09 mg/kg

SMILES: Cc1ccc(S(=O)(=O)O)cc1.NCC1(CC(=O)O)CC2C3C=CC(C3)C21 (single isomer, unassigned; (+)) [(+)-I-4 p-toluenesulfonate]
- impact on rotarod behaviors of the rats (motor functions of rats): no significant impact
- impact on rotarod behaviors of the rats (impacted proportion) (motor functions of rats): smaller than that in the PGB group
- abnormal behaviors at 0-24 h after the administration (male SD rats; [3]): no obvious abnormal behaviors
- Observation of clinical symptoms 0.5 h (male SD rats; [3]): 0
- Observation of clinical symptoms 1 h (male SD rats; [3]): 0
- Observation of clinical symptoms 2 h (male SD rats; [3]): 0
- Observation of clinical symptoms 4 h (male SD rats; [3]): 0
- Observation of clinical symptoms 6 h (male SD rats; [3]): 0
- Observation of clinical symptoms 24 h (male SD rats; [3]): 0
- animal death (male SD rats; [4]): no animals are dead
- Observation of clinical symptoms 0.5 h (male SD rats; [4]): 0
- Observation of clinical symptoms 1 h (male SD rats; [4]): 3
- Observation of clinical symptoms 2 h (male SD rats; [4]): 0
- Observation of clinical symptoms 6 h (male SD rats; [4]): 0
- Observation of clinical symptoms 24 h (male SD rats; [4]): 0
- Observation of clinical symptoms 4 h (male SD rats; oral gavage 300 mg/kg (calculated by free base), 300 mg/kg): 3 and 0
- F (%) calculated based on AUC0-t [1, 5]: 110.25% (calculated
- F (%) calculated based on AUC0-∞ [1, 5]: 110.36% (calculated
- t1/2 ([1]; gavage, 2.74 mg/kg ((+)-I-3) / 2.73 mg/kg ((+)-I-4)): 1.08 h
- AUC0-t ([1]; gavage, 2.74 / 2.73 mg/kg): 7290 ng·h/mL
- AUC0-∞ ([1]; gavage, 2.74 / 2.73 mg/kg): 7380 ng·h/mL
- Cmax ([1]; gavage, 2.74 / 2.73 mg/kg): 2350 ng/mL
- MRT0-∞ ([1]; gavage, 2.74 / 2.73 mg/kg): 2.38 h
- Tmax ([1]; gavage, 2.74 / 2.73 mg/kg): 1 h
- t1/2 ([1]; intravenous injection, 1.10 mg/kg ((+)-I-3) / 1.09 mg/kg ((+)-I-4)): 0.94 h
- AUC0-t [1, 6]: 2640 ng·h/mL
- AUC0-∞ [1, 6]: 2670 ng·h/mL
- MRT0-∞ [1, 6]: 1.63 h
- Clonic seizure incidence [2]: 10/10
- Convulsive seizure incidence [2]: 10/10
- Generalized clonic seizure incidence [2]: 6/10
- Mortality [2]: 3/10
- Tonic seizure incidence [2]: 2/10
- generalized clonic seizures (percent of animals; vehicle 100%) ([2]; sc-PTZ mice, 30 mg/kg): 60%
- tonic seizure incidence (percent of animals; vehicle 75%) ([2]; sc-PTZ mice, 30 mg/kg): 20%
- latent periods of generalized clonic seizures, tonic seizures and death ([2]; sc-PTZ mice): significantly prolong

SMILES: CC(C)C[C@H](CN)CC(=O)O [Pregabalin]
- impact on rotarod behaviors of the rats (motor functions of rats): no significant impact
- time of maximum impact on the rotarod behaviors after the administration (motor functions of rats; gavage 30 mg/kg): 4 h
- impact on rotarod behaviors of the rats (impacted proportion) (motor functions of rats): obvious toxic responses
- Clonic seizure incidence [2]: 8/8
- Convulsive seizure incidence [2]: 8/8
- Generalized clonic seizure incidence [2]: 5/8
- Mortality [2]: 1/8*
- Tonic seizure incidence [2]: 1/8**
- generalized clonic seizures (percent of animals; vehicle 100%) ([2]; sc-PTZ mice, 30 mg/kg): 62.5%
- mortality (percent of animals; vehicle 75%) ([2]; sc-PTZ mice, 30 mg/kg): 12.5%
- tonic seizure incidence (percent of animals; vehicle 75%) ([2]; sc-PTZ mice, 30 mg/kg): 12.5%
- latent periods of generalized clonic seizures, tonic seizures and death ([2]; sc-PTZ mice): significantly prolong
- clinical effective rate (postherpetic neuralgia): 26%-50
